Values quoted from earlier work as cited in patent US20140171466A1, “PAIN MANAGEMENT IN SICKLE CELL ANEMIA” (priority 2012, published 2014).
Entries after “also recorded” stand apart in the source; their conditions may differ. Like-named read-outs stand apart in the source and are kept apart here.

How the values were obtained:
mice = conditions: systemically administered
nonhuman primates = conditions: systemic administration
[1] = compound on its own
[2] = in vivo

Q: What does the source list for O=C1NCN(c2ccccc2)C12CCN(C1CCC3CCCc4cccc1c43)CC2 (stereo in doubt) [Compound 7, ((1 S,3aS)-8-(2,3,3a,4,5,6-hexahydro-1H-phenalen-1-yl)-1-phenyl-1,3,8-triaza-spiro[4.5]decan-4-one)]?
A: morphine conditioned place preference (CPP) (mice): block morphine conditioned place preference (CPP); spinal anti-nociceptive action (nonhuman primates): spinal anti-nociceptive action of NOP agonists has been confirmed

Q: For CCCCCCC(C)(C)c1ccc([C@@H]2C[C@H](O)CC[C@H]2CCCO)c(O)c1 [CP 55,940], which hyperalgesia (BERK sickle mice; low dose 0.3 mg/kg) is on record?
A: attenuated hyperalgesia

Q: What about the “deep hyperalgesia incited by H/R” value (BERK mice) of the same compound?
A: ameliorated

Q: Which “reward in the CPP paradigm” value [1] does the source give for O=C1Cc2ccccc2N1C1CCN(C2CCCCCCC2)CC1 [Compound 3, 1-(1-cyclooctylpiperidin-4-yl)-indolin-2-one] here?
A: not rewarding on its own

Q: What does the source list for CC1(N2CCC(n3c([C@@H]4CCCNC4)nc4ccccc43)CC2)CCCCCCC1 [Compound 10, 1-[1-(1-methylcyclooctyl)-4-piperidinyl]-2-[(3R)-3-piperidinyl]-1H-benzimidazole]?
A: anxiolytic effects [2]: exhibits anxiolytic effects; effect on memory or locomotion [2]: no effect on memory or locomotion

Q: Which hyperalgesia (BERK sickle mice; high dose 20 mg/kg, 20 mg/kg) does the source give for CN1CC[C@]23c4c5ccc(O)c4O[C@H]2[C@@H](O)C=C[C@H]3[C@H]1C5 [morphine] here?
A: effective; also recorded: markedly attenuated
